Assay results reported in patent US9801872B2, “Pyridinyl and fused pyridinyl triazolone derivatives” (Takeda Pharmaceutical Company Limited, priority 2013, dated 2017).

These compounds were tested against human BTK (Homo sapiens (Human), UniProt Q06187) (assay: BTK inhibition: BTK-mediated phosphorylation of FAM-labeled substrate 5-FAM-[…]-NH2 (Caliper LC-3000)). Details: residues 382 to 659 of human BTK; 60 minutes at room temperature; pIC50 = -log(IC50), IC50 molar.
Format: biochemical
Description: The activity of compounds as BTK inhibitors may be determined by a variety of methods, including in vitro and in vivo methods.
This construct engineers an in-frame translational fusion with the Glutathione-S-Transferase (GST) protein for use in affinity purification. The fusion protein derived from this construct contains a protease recognition sequence to liberate the BTK from the GST affinity tag. High-titer baculoviral stocks, generated using the Bac-to-Bac® system (Invitrogen), are used to express the recombinant protein in Spodoptera frugiperda Sf9 cells in 10 L Wave bags. Recombinant proteins are isolated from cellular extracts by passage over Glutathione Sepharose 4B (GE Healthcare) and the BTK moiety is released from the GST affinity tag by treatment with PreScission protease. The BTK recombinant protein is further purified by size exclusion chromatography (HiLoad 16/60 Superdex 200, GE Healthcare) in a buffer containing 20 mM Hepes (pH 7.4), 50 mM NaCl, 10 mM MgCl2, 0.25 mM TCEP and 0.1 mM EDTA. The purity of the fractions is assessed by SDS PAGE and the peak protein fractions are pooled and concentrated using Amicon Ultra-15 Centrifugal Filter Devices (Millipore).
The inhibitory properties of compounds relative to BTK is determined using a black 384-well-plate format in a buffer which contains 50 mM Hepes, 10 mM NaCl, 10 mM MgCl2, 0.2 mM EDTA, 0.01% Brij35®, 1 mM DTT, and 0.1 mg/mL BSA at pH 7.3. The test compound is prepared in DMSO using 2-fold serial dilutions for 11 data points, which are added to the buffer so that each dilution contains 3% DMSO. […] The reaction mixtures are incubated at room temperature for 60 minutes and then quenched by adding 25 μL of 50 mM EDTA. To quantify the fluorescent-labeled substrate and product following reaction, the test plate is loaded on a Caliper LC-3000, which measures percent of conversion by microfluidic-based separation.
The compounds were tested in accordance with the assay described on page 42 of the specification.

Sequence of human BTK (Q06187 382-659): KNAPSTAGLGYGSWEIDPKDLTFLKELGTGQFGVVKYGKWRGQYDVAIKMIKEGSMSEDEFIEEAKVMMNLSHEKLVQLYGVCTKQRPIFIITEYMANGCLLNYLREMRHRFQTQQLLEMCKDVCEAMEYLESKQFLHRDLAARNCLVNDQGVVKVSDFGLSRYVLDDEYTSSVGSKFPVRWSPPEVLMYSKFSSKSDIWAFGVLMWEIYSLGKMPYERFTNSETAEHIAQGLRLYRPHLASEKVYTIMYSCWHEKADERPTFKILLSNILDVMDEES

Structure (SMILES) | BTK Inhibition (pIC50)
O=C(CCl)N1CC[C@H](Oc2nc(-c3n[nH]c(=O)[nH]3)cc3ccccc23)C1 [Example 33, (S)-5-(1-((1-(2-chloroacetyl)pyrrolidin-3-yl)oxy)isoquinolin-3-yl)-2,4-dihydro-3H-1,2,4-triazol-3-one] | >8.2
O=C(CCl)N1CC[C@H](Nc2nc(-c3n[nH]c(=O)[nH]3)cc3ccccc23)C1 [Example 34, (S)-5-(1-((1-(2-chloroacetyl)pyrrolidin-3-yl)amino)isoquinolin-3-yl)-2,4-dihydro-3H-1,2,4-triazol-3-one] | >8.6
C=CC(=O)N1CCC[C@H](Oc2nc(-c3n[nH]c(=O)[nH]3)cc3ccccc23)C1 [Example 35, (S)-5-(1-((1-acryloylpiperidin-3-yl)oxy)isoquinolin-3-yl)-2,4-dihydro-3H-1,2,4-triazol-3-one] | 7.5
